Counter-ions that a name gives are not always drawn.
Assays:
[1] = target: T1, rhAOC1 (Homo sapiens, UniProt P19801); experiment: Selectivity against rhAOC1 enzyme (Biological Example 2); type: biochemical; conditions: Table 2; histamine substrate, Amplex Red/HRP
T1 construct: purchased R&D
T1 sequence (P19801 20-751): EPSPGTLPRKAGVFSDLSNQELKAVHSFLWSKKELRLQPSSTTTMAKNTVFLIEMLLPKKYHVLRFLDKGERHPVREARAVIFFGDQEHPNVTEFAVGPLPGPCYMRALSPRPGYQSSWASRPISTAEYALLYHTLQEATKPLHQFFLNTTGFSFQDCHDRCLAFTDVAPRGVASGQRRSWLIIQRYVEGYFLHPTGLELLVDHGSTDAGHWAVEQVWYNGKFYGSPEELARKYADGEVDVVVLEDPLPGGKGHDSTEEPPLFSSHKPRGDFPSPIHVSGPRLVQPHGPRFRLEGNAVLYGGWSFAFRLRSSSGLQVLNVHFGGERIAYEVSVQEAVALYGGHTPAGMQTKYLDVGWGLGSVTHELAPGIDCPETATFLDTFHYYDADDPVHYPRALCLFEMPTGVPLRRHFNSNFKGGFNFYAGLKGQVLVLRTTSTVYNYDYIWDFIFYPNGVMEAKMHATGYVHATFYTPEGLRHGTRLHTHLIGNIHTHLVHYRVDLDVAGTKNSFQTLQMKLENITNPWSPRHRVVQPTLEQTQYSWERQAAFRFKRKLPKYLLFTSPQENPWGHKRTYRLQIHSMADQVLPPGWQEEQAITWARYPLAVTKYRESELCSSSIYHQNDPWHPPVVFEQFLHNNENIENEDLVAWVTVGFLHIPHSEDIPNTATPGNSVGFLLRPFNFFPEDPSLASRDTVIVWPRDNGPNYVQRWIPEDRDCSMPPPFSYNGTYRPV
Protocol: 2. Selectivity of Compounds Against rhAOC1 Enzyme
(§1) (1) Instrument, Consumable and Reagent
Microplate reader (Perkin Elmer, Nivo 5S), black unclear-bottom 96-well plate (Corning) and rhAOC1 (R&D)
(§2) (2) Preparation of Concentration Gradient Compound Solutions
An appropriate amount of the compound to be tested was taken, dissolved in DMSO to 10 mM and then stored. Before the study, an appropriate amount of mother liquor of the 10 mM compound to be tested was taken and gradiently diluted 3-fold with DMSO, 10 concentration gradients in total. Each concentration gradient was then diluted 10-fold with 0.1 M of PBS.
(§3) (3) Preparation of Enzyme Solutions
An appropriate amount of rhAOC1 mother liquor with a concentration of 0.441 mg/mL was taken and diluted with an appropriate amount of 50 mM HEPES buffer solution to obtain enzyme solutions of 4× concentrations.
(§4) (4) Preparation of Substrate Mixtures of 2× Concentrations
An appropriate amount of histamine was weighed and dissolved with 50 mM of HEPES buffer solution to obtain 20 mM of histamine solution. The histamine solution was added with 2 mM of Amplex Red mother liquor and 500 U/mL of HRP mother liquor and diluted with 50 mM of HEPES buffer solution to obtain substrate mixtures of 2× concentrations.
10 μL compound solutions of different concentrations, 25 μL rhAOC1 enzyme solutions of 4× concentrations and 15 μL of 50 mM HEPES buffer solution were first added into a 96-well plate, shaken to be mixed uniformly and then incubated at 37° C. for 30 min. 50 μL substrate mixtures of 2× concentrations were then added into each well, and the microplate reader was immediately used to detect fluorescence intensity of each well with 580 nm (20 nm) exciting light and 620 nm (10 nm) emission light for 5 min each time, 30 min in total. The inhibition rate was calculated according to the following formula: V (RFU/min)=(Ft (RFU)−F0 (RFU))/(time(min)) Inhibition rate (%)=100%−Vcmpd (RFU/min)/Vmax (RFU/min)×100%
V: fluorescence change rate; Ft: fluorescence reading at time point t; F0: initial fluorescence reading; Time: duration t; Vcmpd: fluorescence change rate of tested compound; Vmax: Max hole fluorescence change rate.
(6) Fitting of Dose-Response Curve
(§5) With the log value of concentration as the X axis and the percent inhibition rate as the Y axis, the log (inhibitor) vs. response-variable slope of analysis software GraphPad Prism 5 was used to fit a dose-response curve, thus obtaining the IC50 value of activity of each compound against the enzyme.

[2] = target: T2, MAO-A (Homo sapiens, UniProt P21397); experiment: Selectivity against MAO-A enzyme (MAO-Glo); type: biochemical
T2 construct: purchased Active Motif
T2 sequence (P21397 1-527): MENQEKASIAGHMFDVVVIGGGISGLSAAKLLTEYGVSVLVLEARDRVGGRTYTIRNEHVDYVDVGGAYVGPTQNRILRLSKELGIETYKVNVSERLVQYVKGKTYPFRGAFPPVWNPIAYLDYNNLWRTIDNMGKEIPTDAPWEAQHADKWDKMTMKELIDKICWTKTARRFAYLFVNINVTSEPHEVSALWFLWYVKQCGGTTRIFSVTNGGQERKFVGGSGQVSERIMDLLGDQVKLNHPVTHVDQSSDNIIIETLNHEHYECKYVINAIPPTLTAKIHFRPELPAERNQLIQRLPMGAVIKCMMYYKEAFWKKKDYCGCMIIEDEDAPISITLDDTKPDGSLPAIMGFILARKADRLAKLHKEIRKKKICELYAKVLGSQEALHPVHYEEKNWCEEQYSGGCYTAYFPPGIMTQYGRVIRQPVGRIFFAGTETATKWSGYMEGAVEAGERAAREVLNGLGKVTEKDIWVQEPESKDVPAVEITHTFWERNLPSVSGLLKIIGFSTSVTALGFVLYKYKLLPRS
Protocol: as §1
Microplate reader (Perkin Elmer, EnVision), 384-well plate (Perkin Elmer), centrifuge (Eppendorf), MAO-Glo™ (Promega), MAO-A (Active Motif) and MAO-B (Active Motif).
as §2
An appropriate amount of the compound to be tested was taken, dissolved in DMSO to 10 mM and then stored. The solution was then gradiently diluted 4-fold with DMSO, 6 concentration gradients in total.
as §3
MAO-A/B mother liquor was diluted with the experimental buffer for MAO-A/B to obtain enzyme solutions of 2× concentrations.
as §4
The mother liquor of MAO-A/B substrate mixture was diluted with the experimental buffer for MAO-A/B to obtain substrate mixtures of 2× concentrations.
200 nL compound solutions or solvents of different concentrations and 10 μL MAO-A/B enzyme solutions of 2× concentrations were added into a 384-well plate, centrifuged at 1,000 rpm for 60 s, shaken to be mixed uniformly and then incubated at room temperature for 15 min. 10 μL substrate mixtures of 2× concentrations were then added into each well, and reaction was initiated. The 384-well plate was centrifuged at 1,000 rpm for 60 s, shaken for a uniform mixing and then incubated at room temperature for 60 min. 20 μL of test stop solution was added to stop reaction. Centrifugation was performed at 1,000 rpm for 60 s, and shaking was performed for uniform mixing. After 30 min of standing, the microplate reader was used to perform reading.
The inhibition rate was calculated according to the following formula: Inhibition rate (%)=(Signal_Max-Signal_sample)/(Signal_Max-Signal_min)×100 (6) Fitting of Dose-Response Curve
as §5

Compound	IC50 [1] [µM]	IC50 [2] [µM]
NC/C(=C\F)Cn1cc2c(c1)C(=O)N(C1CC1)CC2 [Compound A22, (E)-2-(2-(aminomethyl)-3-fluoroallyl)-5-cyclopropyl-2,5,6,7-tetrahydro-4H-pyrrolo[3,4-c]pyridin-4-one]	14.8	> 100
Cl.NC/C(=C\F)Cn1cc2c(c1Cl)CCN(C1CC1)C2=O [Compound A42 hydrochloride, (E)-2-(2-(aminomethyl)-3-fluoroallyl)-1-chloro-5-cyclopropyl-2,5,6,7-tetrahydro-4H-pyrrolo[3,4-c]pyridin-4-one]	28.9	47.6
CC(C)(C)N1CCc2nn(C/C(=C/F)CN)cc2C1=O [Compound A7 hydrochloride, (E)-2-(2-(aminomethyl)-3-fluoroallyl)-5-tert-butyl-2,5,6,7-tetrahydro-4H-pyrazolo[4,3-c]pyridin-4-one]	50	> 100
CCN1CCc2nn(C/C(=C/F)CN)cc2C1=O [Compound A6 hydrochloride, (E)-2-(2-(aminomethyl)-3-fluoroallyl)-5-ethyl-2,5,6,7-tetrahydro-4H-pyrazolo[4,3-c]pyridin-4-one]	8.95	89.1
Cl.NC/C(=C\F)Cn1cc2c(c1Br)CCN(C1CC1)C2=O [Compound A32 hydrochloride, (E)-2-(2-(aminomethyl)-3-fluoroallyl)-1-bromo-5-cyclopropyl-2,5,6,7-tetrahydro-4H-pyrrolo[3,4-c]pyridin-4-one]	23.6	61
NC/C(=C\F)Cn1ncc2c1CCN(C1CC1)C2=O [Compound A2 hydrochloride, (E)-1-(2-(aminomethyl)-3-fluoroallyl)-5-cyclopropyl-1,5,6,7-tetrahydro-4H-pyrazolo[4,3-c]pyridin-4-one]	–	> 100
CNC(=O)c1cnn(C/C(=C/F)CN)c1 [Compound B1, (E)-1-(2-(aminomethyl)-3-fluoroallyl)-N-methyl-1H-pyrazole-4-carboxamide]	3.18	> 100
CCn1ccc2nn(C/C(=C/F)CN)cc2c1=O [Compound A28 hydrochloride, (E)-2-(2-(aminomethyl)-3-fluoroallyl)-5-ethyl-2,5-dihydro-4H-pyrazolo[4,3-c]pyridin-4-one]	4.06	> 100
NC/C(=C\F)Cn1c(Br)c2c(c1Br)C(=O)N(C1CC1)CC2 [Compound A33 hydrochloride, (E)-2-(2-(aminomethyl)-3-fluoroallyl)-1,3-dibromo-5-cyclopropyl-2,5,6,7-tetrahydro-4H-pyrrolo[3,4-c]pyridin-4-one]	> 100	55.9
NC/C(=C\F)Cn1cc2c(=O)n(C3CC3)ccc2n1 [Compound A41, (E)-2-(2-(aminomethyl)-3-fluoroallyl)-5-cyclopropyl-2,5-dihydro-4H-pyrazolo[4,3-c]pyridin-4-one]	9.65	> 100
Cc1c2c(cn1C/C(=C/F)CN)C(=O)N(C1CC1)CC2 [Compound A35 hydrochloride, (E)-2-(2-(aminomethyl)-3-fluoroallyl)-5-cyclopropyl-1-methyl-2,5,6,7-tetrahydro-4H-pyrrolo[3,4-c]pyridin-4-one]	7.03	8.81
CCn1ccc2c(cnn2C/C(=C/F)CN)c1=O [Compound A29 hydrochloride, (E)-1-(2-(aminomethyl)-3-fluoroallyl)-5-ethyl-1,5-dihydro-4H-pyrazolo[4,3-c]pyridin-4-one]	0.674	87.7
CCN1CCc2cn(C/C(=C/F)CN)cc2C1=O [Compound A25, (E)-2-(2-(aminomethyl)-3-fluoroallyl)-5-ethyl-2,5,6,7-tetrahydro-4H-pyrrolo[3,4-c]pyridin-4-one]	11.5	> 100

Reference: patent US12371432B2, “Haloallylamine compounds and application thereof” (TransThera Sciences (Nanjing), Inc., priority 2019, dated 2025)
